Assay results reported in ChEMBL document CHEMBL1201862, “PubChem BioAssay data set” (2004).
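Dose response: 5 concentrations. Exposure: 48 h. Format: 96-well plates. Endpoint: linear interpolation; highest concentration if not reached. Here, GI50 denotes the concentration required for 50% inhibition of growth.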 Active and inactive are the calls of the source. No stated cut-off is given here; in the data, active = GI50 up to about 1.1 µM and inactive = higher.

How the values were obtained:
Assay in all cases: inhibition of tumour cell growth, NCI panel, 48 h
[1] = system: 786-0
[2] = system: A498
[3] = system: A549
[4] = system: ACHN
[5] = system: BT-549
[6] = system: CAKI-1
[7] = system: CCRF-CEM
[8] = system: COLO 205
[9] = system: DU-145
[10] = system: EKVX
[11] = system: HCC 2998
[12] = system: HCT-116
[13] = system: HCT-15
[14] = system: HL-60
[15] = system: HOP-62
[16] = system: HOP-92
[17] = system: HT-29
[18] = system: Hs-578T
[19] = system: IGROV-1
[20] = system: K562
[21] = system: KM12
[22] = system: LOX IMVI
[23] = system: M14
[24] = system: MCF7
[25] = system: MDA-MB-231
[26] = system: MDA-MB-435
[27] = system: MDA-N
[28] = system: MOLT-4
[29] = system: Malme-3M
[30] = system: NCI-H226
[31] = system: NCI-H23
[32] = system: NCI-H460
[33] = system: NCI-H522
[34] = system: NCI/ADR-RES
[35] = system: OVCAR-3
[36] = system: OVCAR-4
[37] = system: OVCAR-5
[38] = system: OVCAR-8
[39] = system: PC-3
[40] = system: RPMI-8226
[41] = system: RXF 393
[42] = system: SF-268
[43] = system: SF-295
[44] = system: SF-539
[45] = system: SK-MEL-28
[46] = system: SK-MEL-2
[47] = system: SK-MEL-5
[48] = system: SK-OV-3
[49] = system: SN12C
[50] = system: SNB-19
[51] = system: SNB-75
[52] = system: SR
[53] = system: SW-620
[54] = system: T47D
[55] = system: TK-10
[56] = system: U-251
[57] = system: UACC-257
[58] = system: UACC-62
[59] = system: UO-31

Q: What does the source list for `Cc1ccc([N+](=O)[O-])c2c(NCCNC(=O)c3cc(C(=O)NCCNc4ccnc5c(C)ccc([N+](=O)[O-])c45)n(C)n3)ccnc12`?
A: GI50 [1]: > 56 µM (inactive); GI50 [2]: > 57.4 µM (inactive); GI50 [3]: > 57.1 µM (inactive); GI50 [4]: > 100 µM (inactive); GI50 [5]: > 100 µM (inactive); GI50 [6]: 98.6 µM (inactive); GI50 [7]: 36 µM (inactive); GI50 [8]: > 100 µM (inactive); GI50 [9]: > 100 µM (inactive); GI50 [10]: > 100 µM (inactive); GI50 [11]: > 100 µM (inactive); GI50 [12]: > 100 µM (inactive); GI50 [13]: > 76.9 µM; GI50 [14]: 53.6 µM (inactive); GI50 [15]: > 60 µM (inactive); GI50 [16]: > 100 µM (inactive); GI50 [17]: > 77.8 µM (inactive); GI50 [18]: > 87.3 µM (inactive); GI50 [19]: > 100 µM (inactive); GI50 [20]: 40.5 µM (inactive); GI50 [21]: > 100 µM (inactive); GI50 [22]: > 44.7 µM (inactive); GI50 [23]: > 72.4 µM (inactive); GI50 [24]: > 21.5 µM (inactive); GI50 [25]: > 54 µM (inactive); GI50 [26]: > 41.6 µM (inactive); GI50 [27]: > 43.7 µM (inactive); GI50 [28]: 31.7 µM (inactive); GI50 [29]: 55.2 µM (inactive); GI50 [30]: > 100 µM (inactive); GI50 [31]: > 84.9 µM (inactive); GI50 [32]: > 100 µM (inactive); GI50 [33]: > 67.3 µM (inactive); GI50 [34]: > 100 µM (inactive); GI50 [35]: > 80.9 µM (inactive); GI50 [36]: > 49.1 µM (inactive); GI50 [37]: > 84.9 µM (inactive); GI50 [38]: > 72.1 µM (inactive); GI50 [39]: > 100 µM (inactive); GI50 [40]: 41.2 µM (inactive); GI50 [41]: > 100 µM (inactive); GI50 [42]: > 100 µM (inactive); GI50 [43]: > 79.6 µM (inactive); GI50 [44]: > 100 µM (inactive); GI50 [45]: > 60.5 µM (inactive); GI50 [46]: > 100 µM (inactive); GI50 [47]: 32.1 µM (inactive); GI50 [48]: > 100 µM (inactive); GI50 [49]: > 57.7 µM (inactive); GI50 [50]: > 100 µM (inactive); GI50 [51]: 45.2 µM (inactive); GI50 [52]: 55.1 µM (inactive); GI50 [53]: 32.9 µM (inactive); GI50 [54]: > 77.8 µM (inactive); GI50 [55]: > 80.7 µM (inactive); GI50 [56]: > 89.5 µM (inactive); GI50 [57]: > 81.1 µM (inactive); GI50 [58]: > 47.4 µM (inactive); GI50 [59]: > 100 µM (inactive)

Q: What does the source list for `CCN(CC)c1ccc2cc(C(=O)NCc3ccccc3)c(=N)oc2c1`?
A: GI50 [1]: > 62.1 µM (inactive); GI50 [2]: > 100 µM (inactive); GI50 [3]: 42.1 µM (inactive); GI50 [4]: 5.43 µM (inactive); GI50 [5]: 23.5 µM (inactive); GI50 [6]: > 44.8 µM (inactive); GI50 [7]: 13.3 µM (inactive); GI50 [8]: 16 µM (inactive); GI50 [9]: 35 µM (inactive); GI50 [10]: 13.7 µM (inactive); GI50 [11]: 40.4 µM (inactive); GI50 [12]: 39 µM (inactive); GI50 [13]: 9.27 µM; GI50 [14]: 39.1 µM (inactive); GI50 [15]: 59.8 µM (inactive); GI50 [16]: 22.1 µM (inactive); GI50 [17]: 9.02 µM (inactive); GI50 [18]: > 37.6 µM (inactive); GI50 [19]: 43.7 µM (inactive); GI50 [20]: 3.86 µM (inactive); GI50 [21]: 8.93 µM (inactive); GI50 [22]: 4.7 µM (inactive); GI50 [23]: 11.1 µM (inactive); GI50 [24]: 36.4 µM (inactive); GI50 [25]: > 46.3 µM (inactive); GI50 [26]: 6.7 µM (inactive); GI50 [27]: 70.5 µM (inactive); GI50 [28]: 24.9 µM (inactive); GI50 [29]: 15.2 µM (inactive); GI50 [30]: > 89.5 µM (inactive); GI50 [31]: 31.1 µM (inactive); GI50 [32]: 28.2 µM (inactive); GI50 [33]: 9.59 µM (inactive); GI50 [34]: 0.912 µM (active); GI50 [35]: 15.6 µM (inactive); GI50 [36]: 16.9 µM (inactive); GI50 [37]: > 100 µM (inactive); GI50 [38]: 37.7 µM (inactive); GI50 [39]: 19.3 µM (inactive); GI50 [40]: 6.95 µM (inactive); GI50 [41]: 47.5 µM (inactive); GI50 [42]: > 79.6 µM (inactive); GI50 [43]: 27.5 µM (inactive); GI50 [44]: 46.3 µM (inactive); GI50 [45]: 66.2 µM (inactive); GI50 [46]: 21.4 µM (inactive); GI50 [47]: 27.6 µM (inactive); GI50 [48]: 56.8 µM (inactive); GI50 [49]: > 100 µM (inactive); GI50 [50]: 54.3 µM (inactive); GI50 [51]: 37.3 µM (inactive); GI50 [52]: > 42.6 µM (inactive); GI50 [53]: 6.01 µM (inactive); GI50 [54]: 4.33 µM (inactive); GI50 [55]: 14.4 µM (inactive); GI50 [56]: 27.7 µM (inactive); GI50 [57]: 20.4 µM (inactive); GI50 [58]: 14.3 µM (inactive); GI50 [59]: > 26.6 µM (inactive)

Q: How did the GI50 [1] turn out when `CCCc1nnc2sc(COc3cc(Cl)c(OCc4nn5c(CCC)nnc5s4)cc3Cl)nn12` was run?
A: 35.7 µM (inactive)

Q: What about the GI50 [2] of the same compound?
A: 37.8 µM (inactive)

Q: What about the GI50 [3] of the same compound?
A: 35.2 µM (inactive)

Q: What about the GI50 [4] of the same compound?
A: 25.4 µM (inactive)

Q: And the GI50 [5]?
A: 29.2 µM (inactive)

Q: What about the GI50 [6] of the same compound?
A: 38.5 µM (inactive)

Q: And the GI50 [7]?
A: 15.6 µM (inactive)

Q: And the GI50 [8]?
A: 50.5 µM (inactive)

Q: And the GI50 [9]?
A: 47 µM (inactive)

Q: What about the GI50 [10] of the same compound?
A: 22.6 µM (inactive)

Q: And the GI50 [11]?
A: 77.8 µM (inactive)

Q: And the GI50 [12]?
A: 46 µM (inactive)

Q: And the GI50 [13]?
A: 0.904 µM

Q: And the GI50 [14]?
A: 25.6 µM (inactive)

Q: And the GI50 [15]?
A: 38.4 µM (inactive)

Q: And the GI50 [16]?
A: 22 µM (inactive)

Q: And the GI50 [17]?
A: 53 µM (inactive)

Q: What about the GI50 [18] of the same compound?
A: 32 µM (inactive)

Q: What about the GI50 [19] of the same compound?
A: 25.2 µM (inactive)

Q: And the GI50 [20]?
A: 0.596 µM (active)

Q: And the GI50 [21]?
A: 70.1 µM (inactive)

Q: What about the GI50 [22] of the same compound?
A: 37.1 µM (inactive)

Q: What about the GI50 [23] of the same compound?
A: 44.7 µM (inactive)

Q: And the GI50 [24]?
A: 23.6 µM (inactive)

Q: What about the GI50 [25] of the same compound?
A: 47.1 µM (inactive)

Q: What about the GI50 [26] of the same compound?
A: 35.3 µM (inactive)

Q: What about the GI50 [27] of the same compound?
A: 37.6 µM (inactive)

Q: And the GI50 [28]?
A: 0.4 µM (active)

Q: And the GI50 [29]?
A: 25.9 µM (inactive)

Q: And the GI50 [30]?
A: > 100 µM (inactive)

Q: What about the GI50 [31] of the same compound?
A: 0.748 µM (active)

Q: What about the GI50 [32] of the same compound?
A: 42.8 µM (inactive)

Q: And the GI50 [33]?
A: 27.3 µM (inactive)

Q: What about the GI50 [34] of the same compound?
A: 5.9 µM (inactive)

Q: What about the GI50 [35] of the same compound?
A: 24.8 µM (inactive)

Q: What about the GI50 [36] of the same compound?
A: 22.5 µM (inactive)

Q: What about the GI50 [37] of the same compound?
A: > 100 µM (inactive)

Q: And the GI50 [38]?
A: 27.4 µM (inactive)

Q: What about the GI50 [39] of the same compound?
A: > 100 µM (inactive)

Q: And the GI50 [40]?
A: 0.0885 µM (active)

Q: What about the GI50 [41] of the same compound?
A: 31.6 µM (inactive)

Q: What about the GI50 [42] of the same compound?
A: 21.7 µM (inactive)

Q: And the GI50 [43]?
A: 28.6 µM (inactive)

Q: What about the GI50 [44] of the same compound?
A: 47.8 µM (inactive)

Q: And the GI50 [45]?
A: 5.66 µM (inactive)

Q: And the GI50 [46]?
A: > 100 µM (inactive)

Q: And the GI50 [47]?
A: 12.3 µM (inactive)

Q: What about the GI50 [48] of the same compound?
A: 24.5 µM (inactive)

Q: And the GI50 [49]?
A: 57 µM (inactive)

Q: What about the GI50 [50] of the same compound?
A: 31.5 µM (inactive)

Q: And the GI50 [51]?
A: 21.7 µM (inactive)

Q: And the GI50 [52]?
A: 0.046 µM (active)

Q: What about the GI50 [53] of the same compound?
A: > 100 µM (inactive)

Q: And the GI50 [54]?
A: 15.2 µM (inactive)

Q: And the GI50 [55]?
A: 52 µM (inactive)

Q: And the GI50 [56]?
A: 37.2 µM (inactive)

Q: And the GI50 [57]?
A: 34.1 µM (inactive)

Q: What about the GI50 [58] of the same compound?
A: 24.2 µM (inactive)
